# Patent US20030206968A1, “Fungicidal mixtures” (priority 1999, published 2003)
# Read-outs that look alike come from different tables or passages of the source.
# How the values were obtained:
# Assay type in all cases: in vivo
# Puccinia recondita [1] = assay: Greenhouse, Puccinia recondita on wheat, 1 day residual; conditions: for pest or weed control at 0.06 ppm / pest or weed control at 0.25 ppm / pest or weed control at 1 ppm / pest or weed control at 4 ppm: Puccinia recondita, read-out: Observed Efficacy
# Excerpt: (§1) The fungicides are applied in single treatments, or in a combination comprising an azolopyrimidine of formula I and a compound selected from the classes (A), (B) and (C) as defined above. The compounds are applied in form of an aqueous spray mix obtained from a concentrated formulation or the technical material.
# (§2) 1. Seed is planted in 6 cm diameter plastic pots and maintained in the greenhouse.
# (§3) 2. When the primary leaf is fully expanded in the case of cereals or several leaves are present in the case of dicots, formulated test compounds are sprayed with a three nozzle overhead fungicide sprayer to near run-off. Alternatively, a single nozzle overhead track sprayer is used for application of the compounds to cereals at a rate of 200 l/ha. Plants are then allowed to air-dry.
# (§4) 3. Inoculation precedes treatment in the case of curative evaluations and follows treatment in case of residual evaluations. For inoculation of powdery mildew disease, plants are set up on greenhouse benches with bottom watering mats and inoculated by dusting them with conidia from infected plants. Between inoculation and treatment for curative evaluations and between treatment and inoculation for residual evaluations, plants are maintained in the greenhouse with bottom watering.
# (§5) For inoculation of non-powdery mildew diseases, an aqueous spore suspension of the pathogen is applied to the plant and the plants are kept 1-2 days in a moist infection chamber before being returned to the greenhouse where they are maintained by bottom watering.
# (§6) 4. Disease on the foliage as percent leaf area with disease symptoms/signs is evaluated about 7 days after inoculation. In the case of wheat, the tips and bases of the leaves are excluded from the evaluation. [formula]
# (§7) 1. Technical compounds are formulated in a solvent/surfactant system consisting of 5% acetone and 0.05% Tween 20 in deionized water. Compounds are dissolved in acetone prior to addition of the water; the Tween 20 can be added through either the acetone or the water. Dilutions are made using the solvent/surfactant system. Formulated compounds are prepared using deionized water.
# (§8) 2. Two kinds of controls are included: Plants treated with the solvent/surfactant solution and inoculated (Solvent Blank). Untreated plants which are inoculated (Inoculated Control).
# (§9) Assessments of the diseases took place at the indicated day after the application of the compounds. Per cent infected leaf area infected was evaluated. The efficacy of the compounds/compounds mixtures to control the diseases was calculated by using the formula given above under item 4: […]
# (§10) Synergy was calculated using the % disease control values of specific treatments for the two COLBY formula given hereinabove
# Fungicidal efficacy of the mixture of Azolopyrimidine C+metconazole (1 day residual) against Puccinia recondita on wheat The tank mix was obtained from a SC formulation containing 100 g Azolopyrimidine C per liter and an EC containing 100 g metconazole per liter. […]
# Fungicidal efficacy of the mixture of Azolopyrimidine C+fluazinam (1 day residual) against Puccinia recondita on wheat The tank mix was obtained from technical material of Azolopyrimidine C and a SC formulation containing 500 g fluazinam per liter. […]
# Blumeria graminis [2] = assay: Greenhouse, Blumeria graminis on wheat, 1 day residual
# Excerpt: as §1, §2, §3, §4, §6, §7, §8, §9, §10
# Fungicidal efficacy of the mixture of Azolopyrimidine C+quinoxyfen (1 day residual)) against Blumeria graminis on wheat The tank mix was obtained from technical material of Azolopyrimidine C and quinoxyfen.
# Fungicidal efficacy of the mixture of Azolopyrimidine C+metalaxyl (1 day residual) against Blumeria graminis on wheat The tank mix was obtained from technical material of Azolopyrimidine C and metalaxyl.
# Fungicidal efficacy of the mixture of Azolopyrimidine C+famoxadone (1 day residual) against Blumeria graminis on wheat The tank mix was obtained from technical material of Azolopyrimidine C and famoxadone.
# Blumeria graminis [3] = assay: Greenhouse, Blumeria graminis on barley, 2 days curative
# Method: as §1, with “The trials are carried out under greenhouse (Examples 1 to 32) or field conditions (Examples 33 to 40) in residual or curative applications. The fungicides” for “The fungicides”
# as §2, §3, §4, §6, §7, §8, §9, §10
# Fungicidal efficacy of the mixture of (S)-Azolopyrimidine C in admixture with Fenhexamid (2 days curative) against Blumeria graminis on barley. The tank mixes were obtained from technical material of (S)-Azolopyrimidine C and Fenhexamid.
# Fungicidal efficacy of the mixture of (S)-Azolopyrimidine C in admixture with Azoxystrobin or Trifloxystrobin (2 days curative) against Blumeria graminis on barley. The tank mixes were obtained from technical material of (S)-Azolopyrimidine C and Azoxystrobin or Trifloxystrobin.
# Botrytis cinerea = assay: Apple fruit Botrytis test, Botrytis cinerea on apple fruits, 3 day residual
# Method: 1. Apples (Malus X domestica Borkh.) variety Golden Delicious are disinfected by washing them briefly in 70% ethanol. After drying the apples are marked with four short equal-distant lines indicating the positions to be wounded.
# 2. Corresponding with the marks, four holes are poked around the apple equator with a pipette tip. 10 μl of the treatment solution are pipetted into each hole.
# 3. Three hours after application, 10 μl of a conidial suspension of Botrytis cinerea are pipetted into each. For incubation, the treated/inoculated apples are set up for five days.
# 4. Disease occurs as rotten apple tissue surrounding the inoculated wounds. The diameter of the rotten zone around each wound is measured.
# 1. Technical compounds are formulated in a solvent system consisting of 5% acetone and 0.05% Tween 20 in deionized water. Compounds are dissolved in acetone prior to dilution with water. Formulated compounds are prepared using deionized water.
# 2. Three kinds of controls are included:
# Assessments of the diseases took place at the indicated day after the application of the compounds. Per cent infected leaf area infected was evaluated. The efficacy of the compounds/compounds mixtures to control the diseases was calculated by using the formula: [formula]
# as §10
# Fungicidal efficacy of the mixture of Azolopyrimidine A+vinclozolin (3 day residual) against Botrytis cinerea on apple fruits The tank mix was obtained from technical material of Azolopyrimidine A and a WG formulation containing 500 g vinclozolin per kg.
# Fungicidal efficacy of the mixture of Azolopyrimidine A+cyprodinil (3 day residual) against Botrytis cinerea on apple fruits The tank mix was obtained from technical material of Azolopyrimidine A and a WG formulation containing 750 g cyprodinil per kg.
# Fungicidal efficacy of the mixture of Azolopyrimidine A+benomyl (3 day residual) against Botrytis cinerea on apple fruits The tank mix was obtained from technical material of Azolopyrimidine A and a WP formulation containing 500 g benomyl per kg.
# Blumeria graminis [4] = assay: Greenhouse, Blumeria graminis on wheat, 2 days curative; conditions: Example 27
# Method: as §1, with “The trials are carried out under greenhouse (Examples 1 to 32) or field conditions (Examples 33 to 40) in residual or curative applications. The fungicides” for “The fungicides”
# as §2, §3, §4, §6, §7, §8, §9, §10
# Fungicidal efficacy of the mixture of (S)-Azolopyrimidine C in admixture with Azoxystrobin or Trifloxystrobin (2 days curative) against Blumeria graminis on wheat. The tank mixes were obtained from technical material of (S)-Azolopyrimidine C and Azoxystrobin or Trifloxystrobin.
# Puccinia recondita [5] = assay: Greenhouse, Puccinia recondita on wheat, 2 days curative; conditions: Example 28
# Method: as §1, with “The trials are carried out under greenhouse (Examples 1 to 32) or field conditions (Examples 33 to 40) in residual or curative applications. The fungicides” for “The fungicides”
# as §2, §3, §4, §5, §6, §7, §8, §9, §10
# Fungicidal efficacy of the mixture of (S)-Azolopyrimidine C in admixture with Azoxystrobin or Trifloxystrobin (2 days curative) against Puccinia recondita on wheat. The tank mixes were obtained from technical material of (S)-Azolopyrimidine C and Azoxystrobin or Trifloxystrobin.
# Blumeria graminis [6] = assay: Greenhouse, Blumeria graminis on wheat, 4 days residual; conditions: Example 30
# Method: as §1, with “The trials are carried out under greenhouse (Examples 1 to 32) or field conditions (Examples 33 to 40) in residual or curative applications. The fungicides” for “The fungicides”
# as §2, §3, §4, §6, §7, §8, §9, §10
# Fungicidal efficacy of the mixture of (S)-Azolopyrimidine C in admixture with Azoxystrobin or Trifloxystrobin (4 days residual) against Blumeria graminis on wheat. The tank mixes were obtained from technical material of (S)-Azolopyrimidine C and Azoxystrobin or Trifloxystrobin.
# Puccinia recondita [7] = assay: Greenhouse, Puccinia recondita on wheat, 4 days residual; conditions: Example 31
# Method: as §1, with “The trials are carried out under greenhouse (Examples 1 to 32) or field conditions (Examples 33 to 40) in residual or curative applications. The fungicides” for “The fungicides”
# as §2, §3, §4, §5, §6, §7, §8, §9, §10
# Fungicidal efficacy of the mixture of (S)-Azolopyrimidine C in admixture with Azoxystrobin or Trifloxystrobin (4 days residual) against Puccinia recondita on wheat. The tank mixes were obtained from technical material of (S)-Azolopyrimidine C and Azoxystrobin or Trifloxystrobin.
compound,measurement,setting,value
C[C@@]1(c2ccc(Oc3ccccc3)cc2)OC(=O)N(Nc2ccccc2)C1=O (racemic) [famoxadone],pest or weed control at 0.06 ppm,"Puccinia recondita [1]; Example 19, dose rate 0.06 ppm",0%
same,pest or weed control at 0.25 ppm,"Puccinia recondita [1]; Example 19, dose rate 0.25 ppm",0%
same,pest or weed control at 1 ppm,"Puccinia recondita [1]; Example 19, dose rate 1 ppm",31%
same,pest or weed control at 4 ppm,"Puccinia recondita [1]; Example 19, dose rate 4 ppm",61%
same,Observed Efficacy,"Blumeria graminis [2]; Example 18, dose rate 0.06 ppm",0%
same,Observed Efficacy,"Blumeria graminis [2]; Example 18, dose rate 0.25 ppm",0%
same,Observed Efficacy,"Blumeria graminis [2]; Example 18, dose rate 1 ppm",0%
same,Observed Efficacy,"Blumeria graminis [2]; Example 18, dose rate 4 ppm",0%
CC1(C(=O)Nc2ccc(O)c(Cl)c2Cl)CCCCC1 [Fenhexamid],Observed Efficacy,"Blumeria graminis [3]; Example 26, dose rate 0.74 ppm",0%
same,Observed Efficacy,"Blumeria graminis [3]; Example 26, dose rate 2.2 ppm",0%
same,Observed Efficacy,"Blumeria graminis [3]; Example 26, dose rate 6.7 ppm",0%
same,Observed Efficacy,"Blumeria graminis [3]; Example 26, dose rate 20 ppm",1%
same,Observed Efficacy,"Blumeria graminis [3]; Example 26, dose rate 60 ppm",7%
same,Observed Efficacy,"Blumeria graminis [3]; Example 26, dose rate 180 ppm",39%
CCCCNC(=O)n1c(NC(=O)OC)nc2ccccc21 [benomyl],Observed Efficacy,"Botrytis cinerea; Example 6, dose rate 1 ppm",0%
same,Observed Efficacy,"Botrytis cinerea; Example 6, dose rate 10 ppm",13%
CC1=C(C(=O)Nc2ccccc2)SCCO1 [carboxin],pest or weed control at 0.06 ppm,Puccinia recondita [1],0%
same,pest or weed control at 0.25 ppm,Puccinia recondita [1],0%
same,pest or weed control at 1 ppm,Puccinia recondita [1],0%
same,pest or weed control at 4 ppm,Puccinia recondita [1],4%
[Cl-].[Cu+2].[Cu+2].[OH-].[OH-].[OH-] [copper oxychloride],Observed Efficacy,"Puccinia recondita [1]; Example 21, dose rate 0.06 ppm",0%
CCCCCCCCCCCCNC(=N)N [dodine],pest or weed control at 0.06 ppm,Puccinia recondita [1],0%
O=[N+]([O-])c1cc(C(F)(F)F)c(Cl)c([N+](=O)[O-])c1Nc1ncc(C(F)(F)F)cc1Cl [fluazinam],pest or weed control at 0.06 ppm,"Puccinia recondita [1]; Example 14, dose rate 0.06 ppm",0%
same,pest or weed control at 1 ppm,"Puccinia recondita [1]; Example 14, dose rate 1 ppm",4%
same,pest or weed control at 4 ppm,"Puccinia recondita [1]; Example 14, dose rate 4 ppm",17%
COCC(=O)N(c1c(C)cccc1C)C(C)C(=O)OC (centres unmarked) [metalaxyl],Observed Efficacy,"Blumeria graminis [2]; Example 17, dose rate 0.06 ppm",0%
same,Observed Efficacy,"Blumeria graminis [2]; Example 17, dose rate 0.25 ppm",0%
same,Observed Efficacy,"Blumeria graminis [2]; Example 17, dose rate 1 ppm",0%
same,Observed Efficacy,"Blumeria graminis [2]; Example 17, dose rate 4 ppm",0%
Fc1ccc(Oc2ccnc3cc(Cl)cc(Cl)c23)cc1 [quinoxyfen],pest or weed control at 0.06 ppm,"Puccinia recondita [1]; Example 15, dose rate 0.06 ppm",0%
same,pest or weed control at 0.25 ppm,"Puccinia recondita [1]; Example 15, dose rate 0.25 ppm",0%
same,pest or weed control at 1 ppm,"Puccinia recondita [1]; Example 15, dose rate 1 ppm",0%
same,pest or weed control at 4 ppm,"Puccinia recondita [1]; Example 15, dose rate 4 ppm",0%
same,Observed Efficacy,"Blumeria graminis [2]; Example 16, dose rate 0.06 ppm",8%
same,Observed Efficacy,"Blumeria graminis [2]; Example 16, dose rate 0.25 ppm",18%
same,Observed Efficacy,"Blumeria graminis [2]; Example 16, dose rate 1 ppm",73%
same,Observed Efficacy,"Blumeria graminis [2]; Example 16, dose rate 4 ppm",99%
S1SSSSSSS1 [sulfur],pest or weed control at 1 ppm,"Puccinia recondita [1]; Example 22, dose rate 1 ppm",0%
C=CC1(C)OC(=O)N(c2cc(Cl)cc(Cl)c2)C1=O (centres unmarked) [vinclozolin],Observed Efficacy,"Botrytis cinerea; Example 4, dose rate 10 ppm",8%
same,Observed Efficacy,"Botrytis cinerea; Example 7, dose rate 1 ppm",0%
same,Observed Efficacy,"Botrytis cinerea; Example 7, dose rate 10 ppm",17%
Trifloxystrobin,Observed Efficacy,"Blumeria graminis [3]; Example 29, dose rate 1.6 ppm",22%
same,Observed Efficacy,"Blumeria graminis [3]; Example 29, dose rate 3.1 ppm",36%
same,Observed Efficacy,"Blumeria graminis [3]; Example 29, dose rate 6.3 ppm",59%
same,Observed Efficacy,"Blumeria graminis [3]; Example 29, dose rate 12.5 ppm",74%
same,Observed Efficacy,"Blumeria graminis [3]; Example 29, dose rate 25 ppm",89%
same,Observed Efficacy,"Blumeria graminis [3]; Example 29, dose rate 50 ppm",96%
same,Observed Efficacy,Blumeria graminis [4]; dose rate 1.6 ppm,34%
same,Observed Efficacy,Blumeria graminis [4]; dose rate 3.1 ppm,55%
same,Observed Efficacy,Blumeria graminis [4]; dose rate 6.3 ppm,78%
same,Observed Efficacy,Blumeria graminis [4]; dose rate 12.5 ppm,89%
same,Observed Efficacy,Blumeria graminis [4]; dose rate 25 ppm,98%
same,Observed Efficacy,Blumeria graminis [4]; dose rate 50 ppm,99%
same,Observed Efficacy,Puccinia recondita [5]; dose rate 1.6 ppm,0%
same,Observed Efficacy,Puccinia recondita [5]; dose rate 3.1 ppm,0%
same,Observed Efficacy,Puccinia recondita [5]; dose rate 6.3 ppm,0%
same,Observed Efficacy,Puccinia recondita [5]; dose rate 12.5 ppm,0%
same,Observed Efficacy,Puccinia recondita [5]; dose rate 25 ppm,0%
same,Observed Efficacy,Blumeria graminis [6]; dose rate 3.1 ppm,0%
same,Observed Efficacy,Blumeria graminis [6]; dose rate 6.3 ppm,0%
same,Observed Efficacy,Blumeria graminis [6]; dose rate 12.5 ppm,0%
same,Observed Efficacy,Blumeria graminis [6]; dose rate 25 ppm,0%
same,Observed Efficacy,Blumeria graminis [6]; dose rate 50 ppm,14%
same,Observed Efficacy,Puccinia recondita [7]; dose rate 3.1 ppm,0%
same,Observed Efficacy,Puccinia recondita [7]; dose rate 6.3 ppm,0%
same,Observed Efficacy,Puccinia recondita [7]; dose rate 12.5 ppm,0%
same,Observed Efficacy,Puccinia recondita [7]; dose rate 25 ppm,0%
same,Observed Efficacy,Puccinia recondita [7]; dose rate 50 ppm,0%
